This is an account of results in patent publication US20260166160A1, “PROTACS TARGETING VIRAL ENZYMES FOR PRECISE TREATMENT OF COVID-19” (Ohio University, priority 2022, published 2026).

Where two headings read alike, the source gives them in different places.

The target of one assay is Mpro (Severe acute respiratory syndrome coronavirus 2, UniProt P0DTD1). Kind of assay: Mpro degradation in HEK293 cells stably expressing wild-type Mpro (tetracycline-inducible), Western Blot with anti-T7 antibodies. In kind it is cell-based, SARS-CoV-2. The settings on record: for remaining activity at 0.5 µM: HEK293, 24 h, read-out: Mpro (relative concentration). The text has this:
To evaluate the degradation activity of MP-C-4N (initially, and additional PROTAC compounds later), a Mpro expression system was constructed in mammalian cells. A cell line stably expressing wild-type Mpro was constructed. According to the RNA sequence of wild-type Mpro, the corresponding DNA sequence was synthesized and codon-optimzied to be suitable for expression in HEK293 cells. After investigating the influence of different expression vectors and promoters on the protein expression level, pCW57.1-TetOn was selected as the expression vector, which contains a tetracycline-inducible promoter, and the target protein expression can be started or closed by controlling the content of tetracycline. With this cell line, the process of expressing MPro during virus infection in human cells was successfully simulated. This model was used to successfully test the degradation ability of candidate compounds on the target protein. Specifically, the cells were treated with doxycycline (1 μg/mL) for 12 h. After removing doxycycline, the cells were treated with PROTACs with indicated concentrations for 24 h and then harvested. The expression of Mpro was determined by Western Blot (WB) analysis using anti-T7 antibodies.
(In general: In western blotting, separated proteins are transferred to a membrane and probed.)

Assay [1] concerns human coronavirus OC43 (HCoV-OC43). Kind of assay: Anti-virus activity, HCoV-OC43 plaque formation in RD cells.
[2] abbreviates: compound at 500 nM, control 100%, Tables 1-3.
[3] abbreviates: Betacoronavirus 1, OC43, RD, RD cells infected with HCoV-OC43, 33° C., 4-5 days, plaque areas, Tables 7-11.

As usually defined, the EC50 is the concentration that produces a half-maximal response. Consider `Cc1ccc(NC(=O)c2ccc(CN3CCN(C(=O)CCOCCNc4cccc5c4C(=O)N(C4CCC(=O)NC4=O)C5=O)CC3)cc2)cc1Nc1nc(-c2cccnc2)cs1` (centres unmarked) [MP-18, 4-((4-(3-(2-((2-(2,6-dioxopiperidin-3-yl)-1,3-dioxoisoindolin-4-yl)amino)ethoxy)propanoyl)piperazin-1-yl)methyl)-N-(4-methyl-3-((4-(pyridin-3-yl)thiazol-2-yl)amino)phenyl)benzamide], for which the remaining activity at 0.5 µM at Mpro was 45%. Also, in assay [1] (Betacoronavirus 1, OC43, RD), a half-maximal effect (EC50) was put at 0.336 µM.

As for `Cc1ccc(NC(=O)c2ccc(CN3CCN(C(=O)CCOCCOCCNc4cccc5c4C(=O)N(C4CCC(=O)NC4=O)C5=O)CC3)cc2)cc1Nc1nc(-c2cccnc2)cs1` (centres unmarked) [MP-19], the remaining activity at 0.5 µM on Mpro is 32%. In addition, the EC50 in assay [1] (Betacoronavirus 1, OC43, RD) came out at 0.318 µM.

In the case of `Cc1ccc(NC(=O)c2ccc(CN3CCN(C(=O)CCOCCOCCOCCNc4cccc5c4C(=O)N(C4CCC(=O)NC4=O)C5=O)CC3)cc2)cc1Nc1nc(-c2cccnc2)cs1` (centres unmarked) [MP-20], the remaining activity at 0.5 µM on Mpro worked out at 28%. In assay [1] (Betacoronavirus 1, OC43, RD), this molecule came in with an EC50 of 0.31 µM.

Regarding `Cc1ccc(NC(=O)c2ccc(CN3CCN(C(=O)CCOCCOCCOCCOCCNc4cccc5c4C(=O)N(C4CCC(=O)NC4=O)C5=O)CC3)cc2)cc1Nc1nc(-c2cccnc2)cs1` (centres unmarked) [MP-21], on Mpro, the remaining activity at 0.5 µM is 52%. Besides, the midpoint of the response in assay [1] (Betacoronavirus 1, OC43, RD), the EC50, lay at 0.48 µM.

For `Cc1ccc(NC(=O)c2ccc(CN3CCN(C(=O)CCOCCOCCOCCOCCOCCNc4cccc5c4C(=O)N(C4CCC(=O)NC4=O)C5=O)CC3)cc2)cc1Nc1nc(-c2cccnc2)cs1` (centres unmarked) [MP-22], the remaining activity at 0.5 µM at Mpro was determined as 75%. In assay [1] (Betacoronavirus 1, OC43, RD), this molecule registered an EC50 of 0.615 µM.

As to `O=C(CCOCCNc1cccc2c1C(=O)N(C1CCC(=O)NC1=O)C2=O)NCCn1cc(NC(=O)c2c(Cl)cccc2Cl)c(C(=O)NC2CCNCC2)n1` (centres unmarked) [MP-28, 4-(2,6-dichlorobenzamido)-1-(2-(3-(2-((2-(2,6-dioxopiperidin-3-yl)-1,3-dioxoisoindolin-4-yl)amino)ethoxy)propanamido)ethyl)-N-(piperidin-4-yl)-1H-pyrazole-3-carboxamide], at Mpro, the remaining activity at 0.5 µM is 33%. The EC50 in assay [1] (Betacoronavirus 1, OC43, RD) came to 0.315 µM.

On to `O=C(CCOCCOCCNc1cccc2c1C(=O)N(C1CCC(=O)NC1=O)C2=O)NCCn1cc(NC(=O)c2c(Cl)cccc2Cl)c(C(=O)NC2CCNCC2)n1` (centres unmarked) [MP-29], for which, on Mpro, the remaining activity at 0.5 µM was 40%. In assay [1] (Betacoronavirus 1, OC43, RD), the EC50 came to 0.38 µM.

`O=C(CCOCCOCCOCCNc1cccc2c1C(=O)N(C1CCC(=O)NC1=O)C2=O)NCCn1cc(NC(=O)c2c(Cl)cccc2Cl)c(C(=O)NC2CCNCC2)n1` (centres unmarked) [MP-30]: the remaining activity at 0.5 µM at Mpro was 52%. The same molecule registered an EC50 in assay [1] (Betacoronavirus 1, OC43, RD) of 0.435 µM.

Turning to `O=C(CCOCCOCCOCCOCCNc1cccc2c1C(=O)N(C1CCC(=O)NC1=O)C2=O)NCCn1cc(NC(=O)c2c(Cl)cccc2Cl)c(C(=O)NC2CCNCC2)n1` (centres unmarked) [MP-31], at Mpro, the remaining activity at 0.5 µM came to 65%. For the same molecule, the EC50 in assay [1] (Betacoronavirus 1, OC43, RD) came to 0.52 µM.

`O=C(CCOCCOCCOCCOCCOCCNc1cccc2c1C(=O)N(C1CCC(=O)NC1=O)C2=O)NCCn1cc(NC(=O)c2c(Cl)cccc2Cl)c(C(=O)NC2CCNCC2)n1` (centres unmarked) [MP-32]: at Mpro, the remaining activity at 0.5 µM was found to be 80%. This molecule returned an EC50 in assay [1] (Betacoronavirus 1, OC43, RD) of 0.83 µM.

For `CC(C)C[C@H](NC(=O)[C@@H](NC(=O)[C@H](C)NC(=O)CCOCCNc1cccc2c1C(=O)N(C1CCC(=O)NC1=O)C2=O)C(C)C)C(=O)N[C@H](C#N)C[C@@H]1CCNC1=O` (some centres unmarked) [MP-38], the remaining activity at 0.5 µM at Mpro (setting [2]) turned out to be 50%. Besides, the EC50 in assay [1] (setting [3]) worked out at 0.38 µM.

For the molecule `CC(C)C[C@H](NC(=O)[C@@H](NC(=O)[C@H](C)NC(=O)CCOCCOCCNc1cccc2c1C(=O)N(C1CCC(=O)NC1=O)C2=O)C(C)C)C(=O)N[C@H](C#N)C[C@@H]1CCNC1=O` (some centres unmarked) [MP-39], the remaining activity at 0.5 µM on Mpro (setting [2]) was determined as 40%. In assay [1] (setting [3]), this molecule had an EC50 of 0.235 µM.

Take `CC(C)C[C@H](NC(=O)[C@@H](NC(=O)[C@H](C)NC(=O)CCOCCOCCNc1cccc2c1C(=O)N(C1CCC(=O)NC1=O)C2=O)C(C)C)C(=O)N[C@H](C#N)C[C@@H]1CCNC1=O` (some centres unmarked) [MP-40]: the “Mpro (relative concentration)” value on Mpro (setting [2]) amounted to 25%. This molecule also registered an EC50 in assay [1] (RD cells infected with HCoV-OC43, 33° C., 4-5 days, plaque areas, Tables 7-11) of 0.225 µM.

Consider `CC(C)C[C@H](NC(=O)[C@@H](NC(=O)[C@H](C)NC(=O)CCOCCOCCOCCNc1cccc2c1C(=O)N(C1CCC(=O)NC1=O)C2=O)C(C)C)C(=O)N[C@H](C#N)C[C@@H]1CCNC1=O` (some centres unmarked) [MP-41], for which, on Mpro (setting [2]), the remaining activity at 0.5 µM came to 45%. This molecule came in with an EC50 in assay [1] (setting [3]) of 0.325 µM.

As to `CC(C)C[C@H](NC(=O)[C@@H](NC(=O)[C@H](C)NC(=O)CCOCCOCCOCCOCCNc1cccc2c1C(=O)N(C1CCC(=O)NC1=O)C2=O)C(C)C)C(=O)N[C@H](C#N)C[C@@H]1CCNC1=O` (some centres unmarked) [MP-42], the remaining activity at 0.5 µM on Mpro (setting [2]) is 70%. In assay [1] (setting [3]), this molecule displayed an EC50 of 0.41 µM.

In the case of `CC(C)C1CCN(C(=O)[C@@H](NC(=O)[C@H](C)NC(=O)CCOCCOCCOCCNc2cccc3c2C(=O)N(C2CCC(=O)NC2=O)C3=O)C(C)(C)C)C1C(=O)N[C@H](C#N)CC1CCNC1=O` (some centres unmarked) [MP-C-4N], the “concentration at which degradation of Mpro was detected” value at Mpro (WB, cells treated 24 h, FIG. 55) lay within 0.5 to 1.0 µM. For the same molecule, the “concentration dependence of Mpro degradation activity” value on Mpro (WB, FIG. 55) is given as “concentration-dependent”.
